Measurements taken from patent US9029329B2, “Caspase-14 activator peptides and compositions comprising said peptides” (ISP Investments Inc., priority 2010, dated 2015).
One block for each substance: values may come before it. No end group written: not given here.

Assays:
NHK cells = assay: Comets test on UVB-irradiated NHK cells (DNA damage, Tail Moment); assay type: cell-based, human
Description: For this purpose, NHK cells were: • under condition a: cultured for 24 hours with the peptide compound of sequence SEQ ID NO: 3 at a concentration of 1% and 3%, and then irradiated with UVB radiation at 20 mJ/cm^2, in order to observe the protective effect of the peptide active ingredient on the cells; • under condition b: irradiated, in a first step, with UVB radiation at 20 mJ/cm^2, and then treated for 24 hours with said peptide compound at a concentration of 1% and 3%, in order to observe the repairing effect of the active ingredient on the cells.
The cells were then removed by trypsination from their carrier, and then centrifuged at 900 rpm for 5 minutes before being concentrated and counted.
A specific cell count (25,000 cells) was then incorporated into a 0.75% Low Melting agarose gel, and then deposited on a glass slide previously coated with 1% agarose. The slides were then immersed in a lysis solution for 1.5 hours at 4° C., and then in an alkaline solution for 20 minutes at 4° C. The cells were then lysed and the DNA denatured. The slides were immersed in an electrophoresis solution before applying an electric field (20 V-250 mA). The thus denatured DNA was subjected to migration within an agarose gel at 4° C. Applying a DNA fluorescent dye on the slides (2 μg/ml propidium iodide) allowed the DNA to be observed in the form of comets in those cases where it had been damaged.
Quantification software is used to determine the average Tail Moment applied to each condition being tested. This parameter provides information on the level of DNA damage: the higher it is, the greater the DNA damage.

pro/filaggrin = assay: Pro/filaggrin immunostaining in cultured human skin biopsies; assay type: cell-based; details: peptide at 1% or 3%, 24 hours and 72 hours, dose-dependent and increases with time
Description: Samples of human skin were cultured at the air/liquid interface. Under a first condition, the samples were treated with the 1% peptide SEQ ID NO: 1 for 24 hours and 72 hours. Under a second condition, the samples were treated with the same peptide but at a concentration of 3% for 24 hours and 72 hours.
These skin samples were thereafter fixed with formaldehyde and then incorporated in paraffin. Sections 2 to 3 μm in size were then made. Immunostaining was carried out after unmasking specific sites by incubation in pepsin. Immunostaining was then performed by means of a filaggrin-specific mouse monoclonal antibody (Tebu Santa Cruz), followed by a secondary antibody, coupled with a fluorescent marker. The skin sections were then examined using an epifluorescence microscope (Nikon® Eclipse E600 microscope).

caspase-14 [1] = assay: Caspase-14 expression by Western Blot in NHKs with or without caspase-14 siRNA; assay type: cell-based, human
Description: NHK cells were cultured in 6-well plates up to a confluence of 60% and then treated with 20 μL of 1%-peptide SEQ ID NO: 2. Then, 100 μL of a previously prepared mixture containing the siRNA of caspase-14 and the transfecting agent were carefully added dropwise, on a well per well basis. The cell culture plate was incubated at 37° C. and at 5% CO2 for 72 hours. The culture medium was renewed every 2 days. Four conditions were implemented: • condition 1: control containing no siRNA nor peptide active ingredient • condition 2: siRNA-transfected cells, containing no peptide active ingredient • condition 3: cells that are not transfected but treated with the peptide active ingredient • condition 4: cells transfected with siRNA, and treated with the peptide active ingredient
The quantification of caspase-14 expression is observed using the conventional immunoblotting technique (Western Blot) carried out by means of an anti-caspase-14 antibody and according to a conventional protocol. To analyze the compensation brought about by the peptide in the NHKs transfected with siRNA, a comparison was performed with respect to non-treated NHKs whose gene had not been extinguished by siRNA.

[2] = test system: cyclobutane-pyrimidine dimers; assay: CPD immunostaining on human skin biopsies subjected to UVB radiation; assay type: cell-based; details: UVB 200 mJ/cm^2, then topical 1% or 3% solution for 24 hours; repair dose-dependent
Description: Human skin biopsies were cultured at the air/liquid interface. These biopsies were subjected to UVB radiation at 200 mJ/cm^2. After irradiation, under a first condition, a 1%-solution of peptide SEQ ID NO: 2 was applied topically to the biopsies for 24 hours. Under a second condition, a 3%-solution of peptide SEQ ID NO: 2 was applied topically for 24 hours. Control conditions are achieved by the topical application of a PBS solution after irradiation.
For staining the cyclobutane-pyrimidine dimers, the skin biopsies were incorporated into paraffin and histological 3 μm thick sections were made. The slides were deparaffinized, hydrated and subjected to immunostaining with an antibody directed against cyclobutane-pyrimidine dimers (MBL D194-1, mouse monoclonal), followed by a suitable secondary antibody (Invitrogen™ A21202), coupled with a fluorescent marker. The skin sections were then examined with an epifluorescence microscope (Nikon® Eclipse E 80i microscope).

caspase-14 [3] = assay: Caspase-14 expression in normal human keratinocytes by immunofluorescence; assay type: cell-based; details: NHKs, peptide at 1% or 3%, 24 hours; dose-dependent, greater at 3% than at 1%
Description: Cultured normal human keratinocytes, NHKs, were treated with 1% or 3%-peptide SEQ ID NO: 2 for 24 hours. The cells were then washed, fixed with 3.7%-paraformaldehyde using 0.1%-triton in the presence of bovine serum albumin (BSA) (diluted to 1/100th). The cells were incubated in the presence of a caspase-14-specific mouse monoclonal antibody (BD Biosciences), and then of a secondary antibody, coupled with a fluorescent marker. The cells were then examined by means of an epifluorescence microscope (Nikon® Eclipse E600 microscope).

Substance: Asn-Arg-Ile-Gln-Ala-Cys-Arg-Gly-NH2 (NRIQACRG-NH2) [peptide SEQ ID NO: 3]
- Tail Moment decrease (NHK cells; condition a: 24 hours pretreatment at 1%, then UVB 20 mJ/cm^2, vs UVB control): 57%
- Tail Moment decrease (NHK cells; condition a: 24 hours pretreatment at 3%, then UVB 20 mJ/cm^2, vs UVB control): 57%
- Tail Moment decrease (NHK cells; condition b: UVB 20 mJ/cm^2, then 24 hours treatment at 1%): 31%
- Tail Moment decrease (NHK cells; condition b: UVB 20 mJ/cm^2, then 24 hours treatment at 3%): 58%

Substance: Asp-Pro-Ile-Gln-Ala-Cys-Arg-Gly-NH2 (DPIQACRG-NH2) [peptide SEQ ID NO: 1]
- pro/filaggrin staining (pro/filaggrin): increase

- light intensity (caspase-14 fluorescence) with respect to the control conditions (caspase-14 [3]): increase
Substance: Ile-Gln-Ala-Cys-Arg-Gly-NH2 (IQACRG-NH2) [peptide SEQ ID NO: 2]
- increase in caspase-14 protein expression with respect to the control (caspase-14 [1]; non-transfected NHKs, 1% peptide, 72 hours (condition 3 vs condition 1)): 20.9%
- decrease in caspase-14 protein expression with respect to the control conditions (caspase-14 [1]; siRNA-transfected NHKs treated with 1% peptide, 72 hours (condition 4 vs condition 1)): 14%
- CPD fluorescence compared with the control conditions with UVB radiation [2]: much weaker fluorescence
